Patent US20190211397A1, “INHIBITORS OF GPR132 FOR USE IN PREVENTING AND/OR TREATING CHEMOTHERAPY-INDUCED NEUROPATHIC PAIN” (Fraunhofer-Gesellschaft zur Foerderung der angewandten …, priority 2016, published 2019)
“Also recorded” adds a separate entry of the source.

How the values were obtained:
[1] = tested on: PKC; experiment: PKC inhibitor on TRPV1 sensitization in DRG neurons (calcium imaging); type: cell-based, mice; details: GF109203X 1 μM 45 mins, 9-HODE 200 nM
Description: (§1) DRG primary cultures were prepared as described previously (Brenneis et al., 2011 b). Briefly, twenty to thirty murine dorsal roots ganglia (DRGs) were dissected from spinal segments and transferred directly into ice-cold Hanks' balanced salt solution with CaCI2 and MgCI2 (lnvitrogen, Carlsbad, Calif., USA). The DRGs were than incubated with Neurobasal Medium (lnvitrogen, Carlsbad, Calif., USA) containing 500 U/ml collagenase (Sigma, Deisenhofen, Germany) and 2.5 U/ml dispase II (Roche, Mannheim, Germany) for 75 mins at 37° C. […]
(§2) Calcium-imaging experiments were performed with a Leica calcium-imaging setup, consisting of a Leica DMI 4000 b inverted microscope equipped with a DFC360 FX (CCD) camera, Fura-2 filters, and an N-Plan 10×/0.25 Ph1 objective (all from Leica), was used. […] For each experiment, an area with large cell numbers 24 h after preparation (see DRG primary cultures) was chosen and 40-110 cells were monitored simultaneously. […]
(§3) TRPV1 sensitization can be mediated by PKA or PKC (Schnizler et al., 2008; Bhave et al., 2003). To investigate the signaling pathway between G2A and TRPV1 in DRG neurons, we determined which protein kinases are involved in sensitization of TRPV1. […]

[2] = tested on: C57BL/6N mice; experiment: Mechanical pain thresholds of mice after oxaliplatin (dynamic plantar aesthesiometer); type: in vivo; details: oxaliplatin 3 mg/kg i.p.
Text: In all behavioral tests the experimenter was unaware of the treatment and the genotype of the mice. For all behavioral experiments we used only 6-12 weeks old C57BU6N mice purchased from commercial breeding companies (Charles River, Sulzfeld, Germany, Janvier, Le Geneset-Saint-lsle, FR). G2A and TRPV1 knockout strains were from Jackson laboratories. All experiments followed the ethics guidelines for investigations in conscious animals and the procedures were approved by the local Ethics Committee. […]
To determine the mechanical thresholds of mice, a Dynamic Plantar Aesthesiometer (Ugo Basile, Comerio, Italy) was used. […] Therefore, a steel rod pushed against the plantar side of the hind paw with linear ascending force (0-5 g over 10 s, in 0.5 g/s intervals) until a fast withdraw of the paw was observed The time between the first contact of the steel rod and the paw withdraw was measured in seconds (paw withdraw latency) and a cut-off time of 20 s was set.
To investigate whether or not alterations in concentrations of oxidized lipids occur during oxaliplatin-induced neuropathic pain, 3 mg/kg oxaliplatin (Nassini et al., 2011) was injected i.p. in C57BL/6N mice and the paw withdrawal latency over 10 days was monitored using a dynamic plantar aesthesiometer. […]

[3] = tested on: DRGs; experiment: Real-time RT-PCR of DRGs of oxaliplatin treated mice; type: in vivo; details: lumbal DRGs, day 10 after oxaliplatin treatment
Description: Lumbar DRGs (L2-L6) were dissected, quick-frozen in liquid nitrogen and stored at −80° C. Total RNA of the DRGs was isolated under RNase-free conditions using a mirVana miRNA Isolation Kit (Ambion) according to the manufacturer's instructions and quantified with a NanoDrop ND-1000 spectrophotometer (NanoDrop Technologies). The cDNA was synthesized from 200 ng RNA using a First Strand cDNA Synthesis Kit (Thermo Scientific) according to the manufacturer's instructions. Real-time RT-PCR was performed using an ABI Prism 7500 Sequence Detection System (Applied Biosystems) using Maxima SYBR Green qPCR Master Mix ROX as well as suitable primers for CYP2C37 (Luo et al., 1998), CYP2C38 (Zhang et al., 2003), CYP2C39 (Luo et al., 1998), CYP2J6 (Choudhary et al., 2003) and CYP3A11 (Chavan et al., 2015).
For analysis of GAPDH (Mm99999915_g1), G2A (Mm02620285_s1), 5-LOX (Mm01182747 m1), 12-LOX (Mm00545833_m1), 15-LOX (Mm00507789_m1) and COX-2 (Mm03294838_g1) assay primer from ThermoFisher Scientific were used. Reactions (total volume 10 μl) were performed in triplicate by incubating at 95° C. for 10 min, followed by 40 cycles of 15 s at 95° C. and 1 min at 60° C. […] Relative expression of target gene levels was determined using the ΔΔCt method, with Ct indicating the cycle number at which the signal of the PCR product crosses a defined threshold set within the exponential phase of the PCR. […]

[4] = tested on: patients; details: cited from earlier work
[5] = tested on: TRPV1; experiment: Calcium imaging of DRG neurons: TRPV1 sensitization (two capsaicin stimuli, Δratio); type: cell-based, mice
Description: DRG primary cultures were prepared as described previously (Brenneis et al., 2011 b). Briefly, twenty to thirty murine dorsal roots ganglia (DRGs) were dissected from spinal segments and transferred directly into ice-cold Hanks' balanced salt solution with CaCI2 and MgCI2 (lnvitrogen, Carlsbad, Calif., USA). The DRGs were than incubated with Neurobasal Medium (lnvitrogen, Carlsbad, Calif., USA) containing 500 U/ml collagenase (Sigma, Deisenhofen, Germany) and 2.5 U/ml dispase II (Roche, Mannheim, Germany) for 75 mins at 37° C. After removal of the collagenase/dispase-solution cells were washed three times with medium containing 10% FCS, penicillin/streptomycin/gentamycin (lnvitrogen, Carlsbad, Calif., USA) and incubated in 0.05% trypsin for 10 min at 37° C. After two washing steps, the cells were mechanically dissociated with a 1 ml pipette and plated on Poly-L-lysine (Sigma) coated coverslips. After incubation at 37° C. for 2 h, Neurobasal Medium containing glutamine (2 mm), penicillin (100 U/ml), streptomycin (100 μg/ml), B-27 and gentamicin (50 μg/ml) was added to the cells and incubated overnight. The neurons were used for Calcium imaging the next day.
Calcium-imaging experiments were performed with a Leica calcium-imaging setup, consisting of a Leica DMI 4000 b inverted microscope equipped with a DFC360 FX (CCD) camera, Fura-2 filters, and an N-Plan 10×/0.25 Ph1 objective (all from Leica), was used. Images were taken every 2 s and were processed with the LAS AF-software (Leica). For each experiment, an area with large cell numbers 24 h after preparation (see DRG primary cultures) was chosen and 40-110 cells were monitored simultaneously. Cells were loaded with 5 μM fura-2-AM-ester (Biotium), incubated for 45-60 min at 37° C. and washed with ringer solution (145 mM NaCI, 1.25 mM CaCl2, 1 mM MgCl2, 5 mM KCI, 10 mM D-glucose, and 10 mM HEPES, adjusted to pH 7.3). Baseline measurements were performed with ringer solution at a flow rate of 1-2 ml/min at room temperature. For the activation of TRPV1 we used a solution of 200 nM capsaicin (Sigma), for TRPA1 activation 50 μM allyl isothiocyanate (AITC, Fluka Analytic) and for TRPM8 100 μM L-menthol (Sigma) dissolved in ringer solution. For TRP-channel sensitization, cells were incubated for 2 mins with different concentrations (50 nM-1000 nM) of (±) 9-HODE (Cayman) or (±) 13-HODE (Cayman) before the second stimulus took place. For control stimulations, the corresponding volume of DMSO (Sigma) was mixed in ringer solution and applied with the same flow rate. 10 μM of the PKA inhibitor H89 (Tocris) or 1 μM of the PKC inhibitor GF1 09203X (Tocris) was co-incubated with fura-2 for 45 mins. As positive control for PKA activation 40 iJM 8-bromo-cAMP (Cayman) and for PKC activation 500 nM bradykinin (Cayman) was used. At the end of each measurement, 50 mM KCl was applied to identify neurons.

[6] = tested on: PKA; experiment: PKA inhibitor on TRPV1 sensitization in DRG neurons (calcium imaging); type: cell-based, mice; details: H89 10 μM 45 mins
Description: as §1, §2, §3

## CN(C)CCCn1cc(C2=C(c3c[nH]c4ccccc34)C(=O)NC2=O)c2ccccc21 [GF109203X]
[1]
  effect on 9-HODE-induced TRPV1 sensitization: supresses the 9-HODE-dependent sensitization of TRPV1; also recorded: prevented TRPV1 sensitization

## O=C1[O][Pt]2([NH][C@@H]3CCCC[C@H]3[NH]2)[O]C1=O [oxaliplatin]
[2]
  start of reduced mechanical paw withdrawal latencies: 4 days
[2]; C57BL/6N mice, monitored over 10 days
  mechanical paw withdrawal latencies: significantly reduced mechanical paw withdrawal latencies
[3]
  mRNA expression of CYP2J6, 5-LOX, 12-LOX, 15-LOX and COX-2: No difference in mRNA expression
[4]
  patients in whom CIPN is induced: up to 80%

## CCCCCC(O)/C=C/C=C\CCCCCCCC(=O)O (stereo not drawn) [13-HODE]
[5]; DRG neurons, lipid incubated 2 minutes before second capsaicin stimulus, 0 to 1000 nM
  sensitization of TRPV1 (Δratio of first and second capsaicin stimulus): no strong sensitizing effect
[5]; wildtype DRG neurons, lipid 200 nM 120 s, capsaicin 200 nM 30 s
  calcium flux of second vs first capsaicin stimulus (Δratio): does not increase the Δratio

## O=S(=O)(NCCNC/C=C/c1ccc(Br)cc1)c1cccc2cnccc12 [H89]
[6]; 8-bromo-cAMP 40 μM
  effect on PKA-dependent TRPV1 sensitization caused by 8-bromo-cAMP: inhibited
[6]; 9-HODE 200 nM
  effect on 9-HODE-induced TRPV1 sensitization: not influenced; also recorded: failed to supress
